# Measured values published in patent US8778882B2, “Agent for strengthening calcium containing tissue and use thereof” (Hayashibara Co., Ltd., priority 2002, dated 2014).
# Columns and labels:
# [1] = test system: mouse pre-osteoblastic cell MC3T3-E1; assay: Alkaline phosphatase activity in mouse pre-osteoblastic cells; type: cell-based
# Method: To increase number of osteoblastic cells having calcium-deposition activity is important for increasing bone mass. […] The activity is at low level in pre-osteoblastic cells and at high level in osteoblastic cells differentiated form the pre-osteoblastic cells. […] Since final ethanol concentration in the medium is 0.2% (v/v), α-MEM medium containing 0.2% (v/v) ethanol was prepared as a negative control. The cells were inoculated for eight days as changing the medium therewith to fresh medium with or without each sample per three days. Alkaline phosphatase activity was measured using “Alkaline Phospha B-Test Wako” (commercialized by Wako Pure Chemical Industries, Osaka, Japan) according with Kajii et al (Archives of Oral Biology, Vol. 44, pp. 233-241, (1999)). Briefly, to the above described mouse pre-osteoblastic cells washed with 1 ml of 0.25 M sucrose solution three times after removing the medium were added 0.45 ml of 50 mM carbonate salt buffer (pH9.8) containing 1 mM magnesium chloride and 50 mM sucrose and 0.05 ml of 3.4 mM disodium p-nitrophenyl phosphate in due course. The mixture was incubated at 25° C. for five minutes and admixed with 1.5 ml of 0.6N sodium hydroxide as a reaction terminator. Absorbance 405 nm of p-nitrophenol generated by alkaline phosphatase in the resulting mixture was measured, and the obtained values were used as values as alkaline phosphatase activity. […] The experiment was performed by the method according to Experiment 1 except that culture day in the medium containing each sample was three, six or nine, and concentration of each sample was 5, 10 or 20 μM. […] As a negative control, mediums containing ethanol in the above concentration were prepared for calculating relative activity to the activity of each control.
# [2] = test system: Rat Femur and Tibia; assay: Enhancing calcium deposition in rat femur and tibia; type: in vivo; conditions: rats fed sample in high sucrose feeding stuff for eight weeks
# Method: The experiment was performed using six three-weeks-aged female Wister rats per one group. The rats were fed with high sucrose feeding stuff containing ingredients listed Table 11 (In the Table, each value means “weight %”.) and one part by weight of each test sample; hesperetin (commercialized by Funakoshi, Co., Ltd., Tokyo, Japan), quercetin (commercialized by Tokyo Kasei Kogyo, Co., Ltd., Tokyo, Japan), α-glycosyl hesperidin (product name “αG HESPERIDINE”, commercialized by Hayashibara Shoji Inc., Okayama, Japan), α-glycosyl rutin (product name “αG RUTIN P”, commercialized by Hayashibara Shoji Inc., Okayama, Japan), or ipriflavone (commercialized by Daito Corporation, Toyama, Japan) (positive control). As a negative control, rats fed with feedstuff containing one part by weight of sucrose replacing test sample were prepared. The rats were allowed to freely take water. The rats were killed after eight weeks, and then, their femurs and tibias were excised. Each femur or tibia dried at 100° C. for about six hours was measured by electric even balance for high precision analysis (product name “HA180M/12QM”, commercialized by A & D Co, Ltd., Tokyo, Japan), and then, each bone was placed into a crucible and burned in an incinerator at 950° C. for six hours. The cinerary resultant was resolved in hydrochloric solution and provided for measuring calcium amount by atomic absorption photometer. Calcium amount per one dried bone was calculated and compared each other.
# [3] = test system: Mouse MC3T3-E1 cells; assay: Calcium deposition by alizarin red-S staining; type: cell-based; set-up: key: +: same strength of red color as a negative control (only medium containing 0.2% (v/v) ethanol); ++: half strength of the positive control; +++: same strength of red color as a positive control (indomethacin); conditions: MC3T3-E1, 20 mM each compound (so in the source), eight days, alizarin red-S red color judgement
# Description: Following Experiment 1 which investigates differentiating pre-osteoblastic cells into osteoblastic cells, some of organic compounds were investigated whether they actually enhance calcium deposition or not. Indomethacin (commercialized by Funakoshi, Co., Ltd., Tokyo, Japan) (positive control), kaempferol (commercialized by Funakoshi, Co., Ltd., Tokyo, Japan), hesperetin (commercialized by Funakoshi, Co., Ltd., Tokyo, Japan), gallic acid (commercialized by Nacalai Tesque, Kyoto, Japan), and coffeic acid (commercialized by Wako Pure Chemical Industries, Osaka, Japan) were selected as organic compounds. Mouse MC3T3-E1 cells were treated with 20 mM each above compound dissolved in 1 ml of α-MEM medium supplemented with 10% (v/v) fetal calf serum and containing 10 mM β-glycerophosphate. Since final ethanol concentration in the medium is 0.2% (v/v), α-MEM medium containing 0.2% (v/v) ethanol was prepared as a negative control. The cells were inoculated for eight days as changing the medium therewith to fresh medium with or without each sample per three days. The cells were applied to measure calcium deposition therein by usual alizarin red-S staining method. Briefly to the cells washed with 1 ml of Dulbecco phosphate buffer saline twice after removing the medium were added 1 ml of 50 (v/v) % ethanol aqueous solution and incubated for 10 minutes. After removing the 50 (v/v) % ethanol aqueous solution, the cells were incubated with 1 ml of distilled water for 10 minutes. After removing the water, the cells were applied with 1 ml of 1% (w/v) alizarin red-S solution, incubated for 10 minutes, and washed with 1 ml of distilled water for three times after removing alizarin red-S solution. Then, the calcium deposition amount was measured in a manner of judging red color on the plate bottom since deposited calcium was stained by the above treatment. The judgement criterion “+” means same strength of red color as a negative control (only medium containing 0.2% (v/v) ethanol), “+++” means same strength of red color as a positive control (indomethacin), and “++” means half strength of the positive control.
smiles,measurement,setting,value
COc1ccc([C@@H]2CC(=O)c3c(O)cc(O)cc3O2)cc1O [Hesperetin],enhancement of alkaline phosphatase activity compared with ipriflavone (FIG. 1),"[1]; MC3T3-E1, 5, 10 or 20 μM, day three, six or nine",equally enhances
same,Relative Alkaline Phosphatase Activity (%),"[1]; flavonoid comparison, method of Experiment 1, relative to 0.2% (v/v) ethanol negative control",116%
same,Calcium Content Per One Dried Bone,[2]; Femur,125.1 mg
same,Dried Bone Mass,[2]; Femur,0.463 g
same,Calcium Content Per One Dried Bone,[2]; Tibia,109.0 mg
same,Dried Bone Mass,[2]; Tibia,0.357 g
same,Calcium Deposition Amount,[3],+++
